According to US11925655B2, “FAP-activated therapeutic agents, and uses related thereto” (Bach Biosciences, LLC, priority 2014, dated 2024):
Read-outs that look alike come from different tables or passages of the source.

Key:
HEK-mFAP cells = experiment: CellTiter-Blue cell viability assay with HEK-mFAP cells; assay type: cell-based, human
FAP = target: T1, FAP (Mus musculus, UniProt P97321); experiment: Inhibition of FAP activity on HEK-mFAP cells; assay type: cell-based; conditions: 5061DOX assay 3
T1 construct: host or cells: HEK (human embryonic kidney) cells, stably transfected
T1 sequence (P97321 1-761): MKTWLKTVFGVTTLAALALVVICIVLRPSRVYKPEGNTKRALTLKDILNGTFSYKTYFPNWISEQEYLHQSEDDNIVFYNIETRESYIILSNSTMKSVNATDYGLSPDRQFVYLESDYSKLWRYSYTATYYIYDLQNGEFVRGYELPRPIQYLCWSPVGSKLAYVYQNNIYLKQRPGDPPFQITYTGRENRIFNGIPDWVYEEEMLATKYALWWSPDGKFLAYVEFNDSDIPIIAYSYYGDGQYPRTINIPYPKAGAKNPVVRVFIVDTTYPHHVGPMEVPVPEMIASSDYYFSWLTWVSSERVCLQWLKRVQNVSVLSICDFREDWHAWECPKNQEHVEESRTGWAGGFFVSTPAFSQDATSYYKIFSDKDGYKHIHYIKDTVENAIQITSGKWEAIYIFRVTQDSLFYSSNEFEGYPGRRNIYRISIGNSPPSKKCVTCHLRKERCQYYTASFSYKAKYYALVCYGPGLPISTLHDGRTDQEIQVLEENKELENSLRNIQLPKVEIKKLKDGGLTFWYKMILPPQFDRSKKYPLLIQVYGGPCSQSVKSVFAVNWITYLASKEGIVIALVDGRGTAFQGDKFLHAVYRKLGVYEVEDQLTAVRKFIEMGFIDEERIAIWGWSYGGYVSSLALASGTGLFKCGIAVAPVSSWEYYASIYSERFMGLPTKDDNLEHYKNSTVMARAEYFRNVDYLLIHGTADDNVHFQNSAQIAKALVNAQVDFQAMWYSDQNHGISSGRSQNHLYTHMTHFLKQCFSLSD

HEK-Mock cells = experiment: CellTiter-Blue cell viability assay with HEK-Mock cells; assay type: cell-based; conditions: Homo sapiens, 72 h
OVCAR-3 = experiment: CellTiter-Blue cell viability assay: OVCAR-3; assay type: cell-based; conditions: Homo sapiens, 5061DOX assay 2, 72 hour incubation
SK-OV-3 = experiment: CellTiter-Blue cell viability assay: SK-OV-3; assay type: cell-based; conditions: Homo sapiens, 5061DOX assay 2, 72 hour incubation
MCF-7 = experiment: CellTiter-Blue cell viability assay: MCF-7; assay type: cell-based; conditions: Homo sapiens
HT-29 = experiment: Cytotoxicity against tumor lines: HT-29; assay type: cell-based; conditions: Homo sapiens, compound alone
Protocol: (§1) Cells from various tumor-derived cell lines were incubated with doxorubicin or 3099DOX, the latter in the presence or absence of FAP, and the EC50 for each was determined.

HEK-mFAP = experiment: Cytotoxicity against tumor lines: HEK-mFAP; assay type: cell-based; conditions: Homo sapiens, compound alone
Protocol: as §1

BxPC-3 = experiment: Cytotoxicity against tumor lines: BxPC-3; assay type: cell-based; conditions: Homo sapiens, compound alone
Protocol: as §1

HPAF-II = experiment: Cytotoxicity against tumor lines: HPAF-II; assay type: cell-based; conditions: Homo sapiens, compound alone
Protocol: as §1

HEK-Mock = experiment: Cytotoxicity against tumor lines: HEK-Mock; assay type: cell-based; conditions: Homo sapiens, compound alone
Protocol: as §1

[1] = 5061DOX assay 2, 72 hour incubation, read-out: EC50 (prodrug alone)
[2] = read-out: EC50 (prodrug + 25 nM FAP)
[3] = read-out: EC50 (prodrug + 100 uM 5057)
[4] = read-out: EC50 (doxorubicin alone)

COc1cccc2c1C(=O)c1c(O)c3c(c(O)c1C2=O)C[C@@](O)(C(=O)CO)C[C@@H]3OC1CC(NC(=O)[C@@H]2CCCN2C(=O)[C@@H](C)NC(=O)c2ccnc3cccc(Br)c23)C(O)C(C)O1 (stereo partly drawn) [Compound 5061DOX]
EC50 (HEK-mFAP cells; 5061DOX assay 2, 72 hour incubation, read-out: EC50 (prodrug + 100 uM 5057)): > 100000 nM | EC50 (HEK-mFAP cells; [1]): > 100000 nM | EC50 (HEK-mFAP cells; Homo sapiens, 5061DOX assay 1, 72 hour incubation, read-out: EC50 (prodrug + 100 uM 5057)): > 100000 nM | EC50 (HEK-mFAP cells; Homo sapiens, 5061DOX assay 1, 72 hour incubation, read-out: EC50 (prodrug alone)): > 100000 nM | IC50 (FAP): > 10000 nM | EC50 (HEK-Mock cells; 5061DOX assay 1, 72 hour incubation, read-out: EC50 (prodrug + 25 nM FAP)): 280 nM | EC50 (HEK-Mock cells; 5061DOX assay 1, 72 hour incubation, read-out: EC50 (prodrug + 50 nM PREP)): > 100000 nM | EC50 (HEK-Mock cells; 5061DOX assay 1, 72 hour incubation, read-out: EC50 (prodrug + 100 uM 5057)): > 100000 nM | EC50 (HEK-Mock cells; 5061DOX assay 1, 72 hour incubation, read-out: EC50 (prodrug alone)): > 100000 nM | EC50 (HEK-Mock cells; 5061DOX assay 2, 72 hour incubation, read-out: EC50 (prodrug + 25 nM FAP)): 250 nM | EC50 (HEK-Mock cells; [1]): > 100000 nM | EC50 (OVCAR-3; [2]): 1500 nM | EC50 (OVCAR-3; [3]): > 100000 nM | EC50 (OVCAR-3; read-out: EC50 (prodrug alone)): > 100000 nM | EC50 (SK-OV-3; [2]): 900 nM | EC50 (SK-OV-3; [3]): > 100000 nM | EC50 (SK-OV-3; read-out: EC50 (prodrug alone)): > 100000 nM | EC50 (MCF-7; MCF7, 5061DOX assay 2, 72 hour incubation, read-out: EC50 (prodrug + 25 nM FAP)): > 100000 nM | EC50 (MCF-7; MCF7, 5061DOX assay 2, 72 hour incubation, read-out: EC50 (prodrug + 100 uM 5057)): > 100000 nM | EC50 (MCF-7; MCF7, 5061DOX assay 2, 72 hour incubation, read-out: EC50 (prodrug alone)): > 100000 nM

COc1cccc2c1C(=O)c1c(O)c3c(c(O)c1C2=O)C[C@@](O)(C(=O)CO)C[C@@H]3O[C@H]1C[C@H](N)[C@H](O)[C@H](C)O1 [doxorubicin, reference compound]
EC50 (HEK-mFAP cells; Homo sapiens, 72 h, 5057DOX assay 2, 72 hour incubation, read-out: EC50 (doxorubicin alone)): 59 nM | EC50 (HEK-mFAP cells; Homo sapiens, 72 h, 5057DOX assay 3, 72 hour incubation, read-out: EC50 (doxorubicin alone)): 240 nM | EC50 (HEK-mFAP cells; Homo sapiens, 72 h, 5057DOX assay 4, 72 hour incubation, read-out: EC50 (doxorubicin alone)): 420 nM | EC50 (HEK-mFAP cells; Homo sapiens, 72 h, 5057DOX assay 8, 72 hour incubation, read-out: EC50 (doxorubicin)): 400 nM | EC50 (HEK-mFAP cells; Homo sapiens, 72 h, 5061DOX assay 1, 72 hour incubation, read-out: EC50 (doxorubicin alone)): 420 nM | EC50 (HEK-mFAP cells; Homo sapiens, 72 h, 5107DOX assay, 72 hour incubation, read-out: EC50 (doxorubicin)): 390 nM | EC50 (HT-29): 400 nM | EC50 (HEK-Mock cells; 5057DOX assay 1, 72 hour incubation, read-out: EC50 (doxorubicin alone)): 36 nM | EC50 (HEK-Mock cells; 5057DOX assay 2, 72 hour incubation, read-out: EC50 (doxorubicin alone)): 34 nM | EC50 (HEK-Mock cells; 5057DOX assay 3, 72 hour incubation, read-out: EC50 (doxorubicin alone)): 95 nM | EC50 (HEK-Mock cells; 5057DOX assay 4, 72 hour incubation, read-out: EC50 (doxorubicin alone)): 92 nM | EC50 (HEK-Mock cells; 5061DOX assay 1, 72 hour incubation, read-out: EC50 (doxorubicin alone)): 92 nM | EC50 (HEK-mFAP): 200 nM | EC50 (BxPC-3): 3100 nM | EC50 (HPAF-II): 2000 nM | EC50 (OVCAR-3; [4]): 1700 nM | EC50 (SK-OV-3; [4]): 440 nM | EC50 (HEK-Mock): 50 nM | EC50 (MCF-7; MCF7, 5057DOX assay 5, 72 hour incubation, read-out: EC50 (doxorubicin alone)): 54000 nM
